Experimental data published in patent US20180243190A1, “ACTIVATORS OF NRF2-DEPENDENT PHOTOPROTECTION AND RELATED USES THEREOF” (THE ARIZONA BOARD OF REGENTS ON BEHALF OF THE UNIVERSITY OF …, priority 2015, published 2018).

Assays:
SKH-1 mice skin = assay: Solar UV photodamage model; format: in vivo
Method: Next, the feasibility of bixin-induced cutaneous protection was studied in a solar UV photodamage model. Nrf2^+/+ and Nrf2^−/− mice were i.p. injected with either corn oil (carrier control) or bixin (200 mg/kg) 48 h before solar UV exposure (240 mJ/cm^2 UVB; 4.4 J/cm^2 UVA). 24 h after UV exposure back skin tissue was then collected followed by immunohistochemical (IHC) analysis. […] Moreover, UV exposure alone activated the NRF2 response in murine skin, effects not detectable in Nrf2^−/− mice (FIG. 5).
Irradiation with solar UV occurred as described before. A KW large area light source solar simulator, model 91293, from Oriel Corporation (Stratford, Conn.) was used, equipped with a 1000 W Xenon arc lamp power supply, model 68920, and a VIS-IR bandpass blocking filter combined with an atmospheric attenuation filter (output 290-400 nm plus residual 650-800 nm). At 345 mm from the source, the UV dose was 4.4 J/cm^2 UVA+240 mJ/cm^2 UVB radiation.
Nrf2^+/+ and Nrf2^−/− SKH-I mice were obtained by breeding Nrf2 heterozygous mice generated by back-crossing Nrf2^−/− C57BL/6 mice onto the SKH-1 hairless mouse genetic background for at least six generations (JAX® Mice, The Jackson Laboratory). All animals received water and food ad libitum and were handled according to the Guide for the Care and Use of Laboratory Animals; the protocols were approved by the University of Arizona Institutional Animal Care and Use Committee. Eight-week-old Nrf2^+/+ and Nrf2^−/− mice were randomly allocated into four groups (n=6): (i) control (corn oil); (ii) bixin (200 mg/kg, dissolved in corn oil); (iii) UV; (iv) bixin+UV. Bixin was administered through intraperitoneal (i.p.) injection 48 h before UV exposure.
24 h after UV exposure, the mice were euthanized and back skin was collected and divided into two parts: one part was frozen in liquid nitrogen for total RNA extraction and protein analysis; the other part was fixed in 10% buffered formalin and embedded in paraffin for histological and immunohistochemical analyses. Tissue sections (4 μm) were baked and deparaffinized. Hematoxylin and eosin (H&E) staining was performed for pathological examination. Antigen retrieval was carried out by boiling the slides with retrieval solution (citric acid monohydrate 2.1 g/L in H2O pH=6.0) three times for 5 min [43]. Tissue sections were then exposed to 3.5 M HCl for 15 min at room temperature and washed with PBS. Subsequently, tissue sections were treated with 0.3% […] to quench endogenous peroxidase activity. Tissue sections were incubated with 5% normal goat serum for 30 min followed by 2 h incubation with primary antibodies at 1:100 dilution at room temperature. Staining was performed using the EnVision+System-HRP (DAB) kit (Dako) according to the manufacturer's instructions.
An in situ cell death detection kit (Roche) was used for detection of apoptotic cell death in skin sections according to the manufacturer's instructions. Briefly, tissue sections were pretreated with proteinase K (20 μg/ml) in 10 mM Tris/HCl (pH 7.8) at 37° C. for 30 min. After washing three times with PBS, tissue sections were incubated with TUNEL reaction mixture for 1 h at 37° C. in the dark. Tissue sections were then stained with Hoechst, and analyzed using a fluorescence microscope (Zeiss Observer.Zi microscope; slidebook computer program; excitation wavelength: 450-500 nm; detection wavelength: 515-565 nm). Hoechst stain was visualized under UV light.

[1] = tested on: NRF2 transcriptional activity; assay: Dual luciferase NQO1-ARE reporter assay in HaCaT keratinocytes; format: cell-based, human; conditions: 10-40 μM, 16 h
Method: Transfection of cDNA was performed using Lipofectamine 3000 (Invitrogen) according to the manufacturer's instructions. Activation of NRF2 transcriptional activity was performed as previously published. Briefly, HaCaT cells were cotransfected with expression vectors for either KEAP1 wild type (KEAP1-WT) or KEAP1 with a mutation that generates a protein that contains a serine residue instead of a cysteine (KEAP1-C151S), along with NQO1-ARE firefly luciferase and Renilla luciferase reporters. At 24 h post-transfection, cells were left untreated or treated with SF (5 μM), As (5 μM), or bixin (40 μM) for 16 h. The cells were then lysed for analysis of the reporter gene activity using the Promega dual-luciferase reporter gene assay system.

NRF2 = assay: Immunoblot analysis (NRF2/KEAP1/targets) in HaCaT keratinocytes; format: cell-based, human
Method: Experiments were performed according to previously published procedures. Cells were harvested in sample buffer (50 mM Tris-HCl [pH 6.8], 2% sodium dodecyl sulfate (SDS), 10% glycerol, 100 mM dithiothreitol (DTT), and 0.1% bromophenol blue), boiled and sonicated. Total cell lysates were resolved by SDS-PAGE and subjected to immunoblot analyses with the indicated antibodies. For the ubiquitination assay, cells were cotransfected with expression vectors for NRF2 and HA-tagged ubiquitin (HA-Ub). Cells were left untreated or treated with either 5 μM sulforaphane (SF) or 40 μM bixin along with 10 μM MG132 for 4 h. Cells were harvested in buffer containing 2% SDS, 150 mM NaCl, 10 mM Tris-HCl (pH 8.0), and 1 mM DTT and boiled immediately. For immunoprecipitation, 1 μg of NRF2 antibody was incubated with the cell lysates at 4° C. overnight with protein A agarose beads (Invitrogen). Immunoprecipitated complexes were washed four times with RIPA buffer and eluted in sample buffer by boiling for 5 min. Samples were resolved by SDS-PAGE and immunoblotted with HA antibody. To measure the half-life of NRF2, HaCaT cells were either left untreated or treated with 5 μM bixin for 4 h, then 50 μM cycloheximide was added to block protein synthesis. Total cell lysates were collected at different time points and subjected to immunoblot analysis with NRF2 antibody. The relative intensity of the bands was quantified using the ChemiDoc CRS gel documentation system and Quantity One software (BioRad).

[2] = 200 mg/kg i.p. 48 h before solar UV, effect confined to Nrf2+/+ mice

## COC(=O)/C=C/C(C)=C\C=C\C(C)=C\C=C\C=C(C)\C=C\C=C(C)\C=C\C(=O)O [bixin]
SKH-1 mice skin; [2]
  UV-induced apoptosis (TUNEL-positive cells): suppressed
  UV-induced epidermal thickening: suppressed
SKH-1 mice skin; Nrf2+/+ and Nrf2−/− mice, 200 mg/kg i.p.
  cyclobutane pyrimidine dimer (CPD)-lesions: not antagonized
SKH-1 mice skin; Nrf2+/+ mice only, 200 mg/kg i.p.
  UV-induced epidermal expression of MMP9 (IHC): significantly antagonized
SKH-1 mice skin; Nrf2+/+ mice, 200 mg/kg i.p.
  UV-elicited keratinocyte hyperproliferation (Ki67 IHC): suppression
  UV-enhanced 8-oxo-dG staining (IHC): suppressed
  UV-induced p-p65 accumulation in the skin: decreased
SKH-1 mice skin; Nrf2−/− mice, 200 mg/kg i.p.
  UV-enhanced 8-oxo-dG staining (IHC): not Nrf2^−/− mice
  UV-induced p-p65 accumulation in the skin: minimal effects
SKH-1 mice skin; observed only in Nrf2+/+ mice, 200 mg/kg i.p.
  UV-induced NF-κB target gene expression (IL6, TNFα, MMP9) at the mRNA level: attenuation
[1]
  NRF2 transcriptional activity: dose-dependent induction
NRF2
  NRF2 target proteins GCLM and AKR1C1: upregulated
  bixin-induced Nrf2 upregulation after 24 h preincubation using NAC: did not attenuate
NRF2; bixin 20 μM
  duration of NRF2 upregulation: sustained over the course of the 24 h treatment
  time to detectable induction of NRF2 protein levels: ≤ 2 h
NRF2; bixin 20 μM, 0-48 h
  KEAP1 protein levels: no changes
NRF2; bixin 20 μM, 48 h
  duration of GCLM upregulation: persisted over an extended period
NRF2; bixin 40 μM, 4 h, 1 h antioxidant pretreatment
  bixin-induced upregulation of Nrf2 protein levels under cotreatment with anti-oxidants (tiron, trolox, NAC): not attenuated
